Laboratory results published in ChEMBL document CHEMBL1201862, “PubChem BioAssay data set” (2004).
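These data come from cells grown in 96-well plates and exposed to compound for 48 hours at five concentrations. GI50 is the concentration that inhibits growth by half.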 Calls of active or inactive are those of the source. No stated cut-off is given here; in the data, active = GI50 up to about 1.1 µM and inactive = higher.

Legend:
Assay in all cases: NCI tumour cell line growth inhibition, 48 h
SF-539 = tested on: SF-539
HCT-116 = tested on: HCT-116
EKVX = tested on: EKVX
IGROV-1 = tested on: IGROV-1
K562 = tested on: K562
UO-31 = tested on: UO-31
M14 = tested on: M14
NCI/ADR-RES = tested on: NCI/ADR-RES
RXF 393 = tested on: RXF 393
LOX IMVI = tested on: LOX IMVI
SW-620 = tested on: SW-620
SK-MEL-5 = tested on: SK-MEL-5
DU-145 = tested on: DU-145
SNB-19 = tested on: SNB-19
MDA-MB-231 = tested on: MDA-MB-231
SN12C = tested on: SN12C
OVCAR-3 = tested on: OVCAR-3
SK-MEL-2 = tested on: SK-MEL-2
CAKI-1 = tested on: CAKI-1
NCI-H522 = tested on: NCI-H522

## C#CCN(CC#C)C(=O)C(=O)c1c[nH]c2ccc(OC)cc12
SF-539
  GI50: 14 µM (inactive)
HCT-116
  GI50: 17.5 µM (inactive)
EKVX
  GI50: 32.4 µM (inactive)
IGROV-1
  GI50: 33 µM (inactive)
K562
  GI50: 18.6 µM (inactive)
UO-31
  GI50: 8.11 µM (inactive)
M14
  GI50: 18.5 µM (inactive)
NCI/ADR-RES
  GI50: 21.8 µM (inactive)
RXF 393
  GI50: 16.3 µM (inactive)
LOX IMVI
  GI50: 18.7 µM (inactive)
SW-620
  GI50: 20.3 µM (inactive)
SK-MEL-5
  GI50: 15.8 µM (inactive)
DU-145
  GI50: 39.1 µM (inactive)
SNB-19
  GI50: 16.1 µM (inactive)
MDA-MB-231
  GI50: 14.9 µM (inactive)
SN12C
  GI50: 15.3 µM (inactive)

## C#CCn1c(=O)c(C)cn(/C(=C\C(=O)OCC)C(=O)OCC)c1=O
SF-539
  GI50: 1.28 µM (inactive)
HCT-116
  GI50: 3.34 µM (inactive)
EKVX
  GI50: 6.43 µM (inactive)
IGROV-1
  GI50: 8.63 µM (inactive)
K562
  GI50: 2.63 µM (inactive)
UO-31
  GI50: 12.7 µM (inactive)
M14
  GI50: 4.19 µM (inactive)
NCI/ADR-RES
  GI50: 3.86 µM (inactive)
RXF 393
  GI50: 1.95 µM (inactive)
LOX IMVI
  GI50: 11.1 µM (inactive)
SW-620
  GI50: 1.67 µM (inactive)
SK-MEL-5
  GI50: 22.3 µM (inactive)
OVCAR-3
  GI50: 6.17 µM (inactive)
SK-MEL-2
  GI50: 16.2 µM (inactive)
DU-145
  GI50: 16.1 µM (inactive)
SNB-19
  GI50: 19.7 µM (inactive)
MDA-MB-231
  GI50: 10.1 µM (inactive)
CAKI-1
  GI50: 1.36 µM (inactive)
SN12C
  GI50: 6.3 µM (inactive)

## Clc1ccc(NCc2nnc(COc3ccc(OCc4nnc(CNc5ccc(Cl)cc5)o4)c(Cl)c3)o2)cc1
HCT-116
  GI50: > 100 µM (inactive)
EKVX
  GI50: 22.8 µM (inactive)
IGROV-1
  GI50: 17.2 µM (inactive)
UO-31
  GI50: 26.4 µM (inactive)
M14
  GI50: > 100 µM (inactive)
NCI/ADR-RES
  GI50: 5.68 µM (inactive)
RXF 393
  GI50: 47.3 µM (inactive)
LOX IMVI
  GI50: 20.3 µM (inactive)
SW-620
  GI50: 38.2 µM (inactive)
NCI-H522
  GI50: 10.6 µM (inactive)
SK-MEL-5
  GI50: 5.7 µM (inactive)
OVCAR-3
  GI50: 29.7 µM (inactive)
SK-MEL-2
  GI50: 14 µM (inactive)
DU-145
  GI50: > 100 µM (inactive)
SNB-19
  GI50: > 100 µM (inactive)
MDA-MB-231
  GI50: 15.7 µM (inactive)
CAKI-1
  GI50: 28.7 µM (inactive)
SN12C
  GI50: 43.5 µM (inactive)

## Cn1c2ccccc2c2c3c(c4c5ccccc5n(C)c4c21)C(=O)N(Cc1ccccc1)C3=O
SF-539
  GI50: > 100 µM (inactive)
HCT-116
  GI50: > 100 µM (inactive)
EKVX
  GI50: > 100 µM (inactive)
IGROV-1
  GI50: 53.3 µM (inactive)
K562
  GI50: > 100 µM (inactive)
UO-31
  GI50: > 100 µM (inactive)
M14
  GI50: > 100 µM (inactive)
NCI/ADR-RES
  GI50: > 100 µM (inactive)
LOX IMVI
  GI50: > 100 µM (inactive)
SW-620
  GI50: > 100 µM (inactive)
NCI-H522
  GI50: > 100 µM (inactive)
SK-MEL-5
  GI50: 77.4 µM (inactive)
SK-MEL-2
  GI50: > 100 µM (inactive)
DU-145
  GI50: > 100 µM (inactive)
SNB-19
  GI50: > 100 µM (inactive)
MDA-MB-231
  GI50: > 100 µM (inactive)
CAKI-1
  GI50: > 100 µM (inactive)
SN12C
  GI50: > 100 µM (inactive)

## ClCCN(CCCl)c1ccc(/C=N/Nc2ccnc3ccccc23)cc1
SF-539
  GI50: 1.41 µM (inactive)
HCT-116
  GI50: 1.21 µM (inactive)
EKVX
  GI50: 2.39 µM (inactive)
IGROV-1
  GI50: 1.65 µM (inactive)
K562
  GI50: 1.39 µM (inactive)
UO-31
  GI50: 1.86 µM (inactive)
M14
  GI50: 2.02 µM (inactive)
NCI/ADR-RES
  GI50: 1.9 µM (inactive)
LOX IMVI
  GI50: 1.44 µM (inactive)
SW-620
  GI50: 1.87 µM (inactive)
NCI-H522
  GI50: 1.83 µM (inactive)
SK-MEL-5
  GI50: 1.66 µM (inactive)
OVCAR-3
  GI50: 1.88 µM (inactive)
SK-MEL-2
  GI50: 2 µM (inactive)
DU-145
  GI50: 1.8 µM (inactive)
SNB-19
  GI50: 2.33 µM (inactive)
MDA-MB-231
  GI50: 1.89 µM (inactive)
CAKI-1
  GI50: 2.18 µM (inactive)
SN12C
  GI50: 1.65 µM (inactive)

## Cc1nc2c(c(N3CCN(C)CC3)n1)Cc1ccccc1-2
SF-539
  GI50: 84.7 µM (inactive)
HCT-116
  GI50: 46.5 µM (inactive)
EKVX
  GI50: 42.4 µM (inactive)
K562
  GI50: 34.6 µM (inactive)
UO-31
  GI50: 15 µM (inactive)
M14
  GI50: 50.9 µM (inactive)
NCI/ADR-RES
  GI50: 49.5 µM (inactive)
RXF 393
  GI50: > 100 µM (inactive)
SW-620
  GI50: 31 µM (inactive)
NCI-H522
  GI50: 16.9 µM (inactive)
SK-MEL-5
  GI50: 51.2 µM (inactive)
SK-MEL-2
  GI50: 75.5 µM (inactive)
DU-145
  GI50: > 100 µM (inactive)
SNB-19
  GI50: 24.9 µM (inactive)
MDA-MB-231
  GI50: 37.8 µM (inactive)
CAKI-1
  GI50: 17.1 µM (inactive)

## CC(=O)OCCn1c(Cc2ccc([N+](=O)[O-])cc2)nn(C(C)=O)c1=O
SF-539
  GI50: > 100 µM (inactive)
HCT-116
  GI50: > 100 µM (inactive)
EKVX
  GI50: > 100 µM (inactive)
IGROV-1
  GI50: > 100 µM (inactive)
K562
  GI50: > 100 µM (inactive)
UO-31
  GI50: > 100 µM (inactive)
M14
  GI50: > 100 µM (inactive)
NCI/ADR-RES
  GI50: > 100 µM (inactive)
LOX IMVI
  GI50: > 100 µM (inactive)
SW-620
  GI50: > 100 µM (inactive)
NCI-H522
  GI50: > 100 µM (inactive)
SK-MEL-5
  GI50: > 100 µM (inactive)
OVCAR-3
  GI50: > 100 µM (inactive)
SK-MEL-2
  GI50: > 100 µM (inactive)
DU-145
  GI50: > 100 µM (inactive)
SNB-19
  GI50: > 100 µM (inactive)
MDA-MB-231
  GI50: > 100 µM (inactive)
CAKI-1
  GI50: > 100 µM (inactive)
SN12C
  GI50: > 100 µM (inactive)

## C[C@@H]1O[C@@H](O[C@H]2CC[C@]3(C=O)[C@H]4CC[C@]5(C)[C@@H](c6ccc(=O)oc6)CC[C@]5(O)[C@@H]4CC[C@]3(O)C2)[C@H](O)[C@H](O)[C@H]1O[C@@H]1O[C@H](CO)[C@@H](O)[C@H](O)[C@H]1O [HELLEBRIN]
SF-539
  GI50: 0.00811 µM (active)
HCT-116
  GI50: 0.00805 µM (active)
EKVX
  GI50: 0.0075 µM (active)
IGROV-1
  GI50: 0.0183 µM (active)
K562
  GI50: 0.0218 µM (active)
UO-31
  GI50: 0.0186 µM (active)
M14
  GI50: 0.021 µM (active)
NCI/ADR-RES
  GI50: 0.0152 µM (active)
LOX IMVI
  GI50: 0.0166 µM (active)
SW-620
  GI50: 0.0375 µM (active)
NCI-H522
  GI50: 0.00324 µM (active)
SK-MEL-5
  GI50: 0.00841 µM (active)
OVCAR-3
  GI50: 0.00408 µM (active)
SK-MEL-2
  GI50: 0.0199 µM (active)
DU-145
  GI50: 0.00265 µM (active)
SNB-19
  GI50: 0.0451 µM (active)
MDA-MB-231
  GI50: 0.0379 µM (active)
CAKI-1
  GI50: 0.0121 µM (active)
SN12C
  GI50: 0.00506 µM (active)
